Results reported in the NIST ThermoML archive (doi:10.1016/j.fluid.2004.09.013).
± gives the expanded uncertainty stated by the source.

Conditions: for mass density: Fluid (supercritical or subcritical phases), Vibrating tube method; for vapor or sublimation pressure: Liquid

C=C(C)C [2-methylpropene]
Conditions | mass density [kg/m3]
388.24 K, 14986 kPa | 509.22 ± 1.1
388.24 K, 19997 kPa | 523.66 ± 1.2
388.24 K, 25009 kPa | 535.55 ± 1.2
388.24 K, 29994 kPa | 545.71 ± 1.3
388.24 K, 35003 kPa | 554.67 ± 1.3
393.24 K, 3122 kPa | 430.77 ± 0.92
393.24 K, 4982 kPa | 451.26 ± 0.96
393.24 K, 9992 kPa | 482.81 ± 1
393.24 K, 14983 kPa | 502.79 ± 1.1
393.24 K, 20002 kPa | 518.03 ± 1.2
393.24 K, 25003 kPa | 530.42 ± 1.2
393.24 K, 29986 kPa | 540.94 ± 1.3
393.24 K, 34999 kPa | 550.22 ± 1.3
398.24 K, 3358 kPa | 417.5 ± 0.9
398.24 K, 4991 kPa | 439.31 ± 0.93
398.24 K, 10000 kPa | 474.88 ± 1
398.24 K, 15001 kPa | 496.33 ± 1.1
398.24 K, 19996 kPa | 512.31 ± 1.2
398.24 K, 24996 kPa | 525.25 ± 1.2
398.24 K, 30012 kPa | 536.21 ± 1.3
398.24 K, 35008 kPa | 545.78 ± 1.3
403.24 K, 3596 kPa | 402.69 ± 0.89
403.24 K, 4988 kPa | 426.04 ± 0.91
403.24 K, 14999 kPa | 489.7 ± 1.1
403.24 K, 19992 kPa | 506.53 ± 1.2
403.24 K, 24997 kPa | 520.05 ± 1.2
403.24 K, 30004 kPa | 531.43 ± 1.3
403.24 K, 34985 kPa | 541.26 ± 1.3
403.25 K, 9993 kPa | 466.62 ± 1
408.24 K, 3850 kPa | 386.28 ± 0.89
408.24 K, 4991 kPa | 411.13 ± 0.92
408.24 K, 14992 kPa | 482.94 ± 1.1
408.24 K, 19999 kPa | 500.74 ± 1.1
408.24 K, 24999 kPa | 514.84 ± 1.2
408.24 K, 30000 kPa | 526.63 ± 1.3
408.25 K, 9982 kPa | 458.05 ± 0.99
408.25 K, 34995 kPa | 536.8 ± 1.3
413.24 K, 4118 kPa | 367.6 ± 0.91
413.24 K, 30005 kPa | 521.83 ± 1.3
413.24 K, 35003 kPa | 532.34 ± 1.3
413.25 K, 4983 kPa | 393.59 ± 0.92
413.25 K, 9996 kPa | 449.33 ± 0.98
413.25 K, 14993 kPa | 476.09 ± 1.1
413.25 K, 19996 kPa | 494.87 ± 1.1
413.25 K, 24999 kPa | 509.59 ± 1.2
418.24 K, 4397 kPa | 346.27 ± 1.1
418.24 K, 4989 kPa | 372.46 ± 0.97
418.24 K, 14988 kPa | 469.1 ± 1
418.24 K, 19991 kPa | 488.93 ± 1.1
418.24 K, 24993 kPa | 504.3 ± 1.2
418.25 K, 9999 kPa | 440.27 ± 0.96
418.25 K, 30007 kPa | 517.01 ± 1.3
418.25 K, 34986 kPa | 527.81 ± 1.3
423.24 K, 5018 kPa | 345.72 ± 0.87
423.24 K, 19992 kPa | 482.96 ± 1.1
423.24 K, 30010 kPa | 512.18 ± 1.3
423.25 K, 9984 kPa | 430.4 ± 0.94
423.25 K, 14989 kPa | 462 ± 1
423.25 K, 25000 kPa | 499.02 ± 1.2
423.25 K, 34992 kPa | 523.34 ± 1.3
423.25 K, 39996 kPa | 533.35 ± 1.4
428.24 K, 5018 kPa | 303.01 ± 0.98
428.24 K, 24987 kPa | 493.65 ± 1.2
428.24 K, 34996 kPa | 518.85 ± 1.3
428.25 K, 9990 kPa | 420.58 ± 0.93
428.25 K, 14983 kPa | 454.76 ± 1
428.25 K, 19986 kPa | 476.9 ± 1.1
428.25 K, 30000 kPa | 507.31 ± 1.2
433.24 K, 5019 kPa | 233.56 ± 0.96
433.25 K, 9991 kPa | 410.25 ± 0.93
433.25 K, 14996 kPa | 447.46 ± 1
433.25 K, 19984 kPa | 470.79 ± 1.1
433.25 K, 24991 kPa | 488.3 ± 1.2
433.25 K, 30001 kPa | 502.44 ± 1.2
433.25 K, 34994 kPa | 514.34 ± 1.3
438.25 K, 5019 kPa | 183.56 ± 0.78
438.25 K, 9997 kPa | 399.54 ± 0.92
438.25 K, 14998 kPa | 440.02 ± 0.98
438.25 K, 19984 kPa | 464.66 ± 1.1
438.25 K, 24988 kPa | 482.93 ± 1.2
438.25 K, 30000 kPa | 497.59 ± 1.2
438.25 K, 34992 kPa | 509.86 ± 1.3
443.25 K, 5019 kPa | 159.03 ± 0.68
443.25 K, 9994 kPa | 388.26 ± 0.91
443.25 K, 14989 kPa | 432.39 ± 0.97
443.25 K, 20002 kPa | 458.54 ± 1.1
443.25 K, 24984 kPa | 477.51 ± 1.1
443.25 K, 29996 kPa | 492.7 ± 1.2
443.25 K, 34994 kPa | 505.36 ± 1.3
448.25 K, 5018 kPa | 144.08 ± 0.66
448.25 K, 9996 kPa | 376.53 ± 0.89
448.25 K, 14997 kPa | 424.77 ± 0.95
448.25 K, 19999 kPa | 452.29 ± 1.1
448.25 K, 24998 kPa | 472.14 ± 1.1
448.25 K, 29994 kPa | 487.82 ± 1.2
448.25 K, 35009 kPa | 500.91 ± 1.3
453.25 K, 5016 kPa | 133.47 ± 0.64
453.25 K, 9986 kPa | 364.19 ± 0.87
453.25 K, 14989 kPa | 416.85 ± 0.94
453.25 K, 19999 kPa | 446.01 ± 1
453.25 K, 25000 kPa | 466.69 ± 1.1
453.25 K, 29993 kPa | 482.93 ± 1.2
453.25 K, 35004 kPa | 496.39 ± 1.3

Conditions | vapor or sublimation pressure [kPa]
393.36 K | 2656.5 ± 9.8
399.86 K | 2967.1 ± 11
412.88 K | 3665.8 ± 13
